The text below walks through data of ChEMBL document CHEMBL3860056, “In vitro and in vivo inhibitory activity of 6-amino-2,4,5-trimethylpyridin-3-ols against inflammatory bowel disease” (Bioorg Med Chem Lett, 2016).

The nature of assay [1]: Antiinflammatory activity in human HT-29 cells assessed as inhibition of TNF-alpha induced BCECF-AM labeled human U937 cell adhesion at 1 uM preincubated for 1 hr followed by stimulation with TNF-alpha for 3 hrs followed by further co-incubation with BCECF-AM labeled human U937 cells for 1 hr by fluorescent/light microscopic analysis. Format: functional.
The subject of assay [2] is Rattus norvegicus. Description: Antiinflammatory activity in TNBS-induced Sprague-Dawley rat colitis model assessed as body weight recovery at 300 mg/kg/day, po administered for 5 days post 1 day of TNBS-challenge measured daily during compound dosing relative to control. It is filed as functional.
Assay [3] deals with Rattus norvegicus. Description: Antiinflammatory activity in TNBS-induced Sprague-Dawley rat colitis model assessed as inhibition of myeloperoxidase level in colon at 300 mg/kg/day, po administered for 5 days post 1 day of TNBS-challenge by colorimetric method relative to control. Format: functional.
In assay [4] the test system is Rattus norvegicus. Description: Antiinflammatory activity in TNBS-induced Sprague-Dawley rat colitis model assessed as colon weight recovery at 300 mg/kg/day, po administered for 5 days post 1 day of TNBS-challenge relative to control. Format: functional.
Assay [5] can be described thus: Antiinflammatory activity in human HT-29 cells assessed as inhibition of TNF-alpha induced BCECF-AM labeled human U937 cell adhesion preincubated for 1 hr followed by stimulation with TNF-alpha for 3 hrs followed by further co-incubation with BCECF-AM labeled human U937 cells for 1 hr by fluorescent/light microscopic analysis. Format: functional, cell-based.
Assay [6] can be described thus: Antiinflammatory activity in human HT-29 cells assessed as inhibition of TNF-alpha induced BCECF-AM labeled human U937 cell adhesion at 20 mM preincubated for 1 hr followed by stimulation with TNF-alpha for 3 hrs followed by further co-incubation with BCECF-AM labeled human U937 cells for 1 hr by fluorescent/light microscopic analysis. Format: functional.
In assay [7] the test system is Rattus norvegicus. Description: Antiinflammatory activity in TNBS-induced Sprague-Dawley rat colitis model assessed as inhibition of myeloperoxidase level in colon at 1 mg/kg/day, po administered for 5 days post 1 day of TNBS-challenge by colorimetric method relative to control. Format: functional.
Assay [8] deals with Rattus norvegicus. Description: Antiinflammatory activity in TNBS-induced Sprague-Dawley rat colitis model assessed as body weight recovery at 0.1 mg/kg/day, po administered for 5 days post 1 day of TNBS-challenge measured daily during compound dosing relative to control. Format: functional.
Assay [9] has as its system Rattus norvegicus. Description: Antiinflammatory activity in TNBS-induced Sprague-Dawley rat colitis model assessed as inhibition of myeloperoxidase level in colon at 0.1 mg/kg/day, po administered for 5 days post 1 day of TNBS-challenge by colorimetric method relative to control. It is filed as functional.
Assay [10] concerns Rattus norvegicus. The experiment in a line: Antiinflammatory activity in TNBS-induced Sprague-Dawley rat colitis model assessed as body weight recovery at 10 mg/kg/day, po administered for 5 days post 1 day of TNBS-challenge measured daily during compound dosing relative to control. It is filed as functional.
Assay [11] relates to Rattus norvegicus. Description: Antiinflammatory activity in TNBS-induced Sprague-Dawley rat colitis model assessed as colon weight recovery at 10 mg/kg/day, po administered for 5 days post 1 day of TNBS-challenge relative to control. Format: functional.
The test system of assay [12] is Rattus norvegicus. Description: Antiinflammatory activity in po dosed TNBS-induced Sprague-Dawley rat colitis model assessed as reduction in colon edema and adhesion administered for 5 days post 1 day of TNBS-challenge by microscopic analysis. Format: functional, organism-based.
For assay [13], the system named is Rattus norvegicus. Description: Antiinflammatory activity in TNBS-induced Sprague-Dawley rat colitis model assessed as body weight recovery at 1 mg/kg/day, po administered for 5 days post 1 day of TNBS-challenge measured daily during compound dosing relative to control. Format: functional.
Assay [14] relates to Rattus norvegicus. The experiment in a line: Antiinflammatory activity in TNBS-induced Sprague-Dawley rat colitis model assessed as colon weight recovery at 1 mg/kg/day, po administered for 5 days post 1 day of TNBS-challenge relative to control. It is filed as functional.
Assay [15] deals with Rattus norvegicus. Description: Antiinflammatory activity in TNBS-induced Sprague-Dawley rat colitis model assessed as colon weight recovery at 0.1 mg/kg/day, po administered for 5 days post 1 day of TNBS-challenge relative to control. It is filed as functional.
For assay [16], the species on record is Rattus norvegicus. The experiment in a line: Potency index, ratio of compound efficacy to sulfasalazine efficacy in TNBS-induced Sprague-Dawley rat colitis model assessed as colon weight recovery. It is filed as functional.
Assay [17] is filed under the species Rattus norvegicus. Description: Potency index, ratio of compound efficacy to sulfasalazine efficacy in TNBS-induced Sprague-Dawley rat colitis model assessed as body weight recovery. It is filed as functional.
The test system of assay [18] is Rattus norvegicus. The experiment in a line: Antiinflammatory activity in po dosed TNBS-induced Sprague-Dawley rat colitis model assessed as body weight recovery compound administered for 5 days post 1 day of TNBS-challenge measured daily during compound dosing. It is filed as functional, organism-based.
The test system of assay [19] is Rattus norvegicus. The experiment in a line: Antiinflammatory activity in po dosed TNBS-induced Sprague-Dawley rat colitis model assessed as recovery of increase in colon wet weight administered for 5 days post 1 day of TNBS-challenge. Format: functional, organism-based.
In assay [20] the test system is Rattus norvegicus. Description: Antiinflammatory activity in TNBS-induced Sprague-Dawley rat colitis model assessed as inhibition of myeloperoxidase level in colon at 10 mg/kg/day, po administered for 5 days post 1 day of TNBS-challenge by colorimetric method relative to control. It is filed as functional.
Assay [21] is filed under the species Rattus norvegicus. Description: Potency index, ratio of compound efficacy to sulfasalazine efficacy in TNBS-induced Sprague-Dawley rat colitis model assessed as inhibition of MPO level in colon. It is filed as functional.

In general, inhibition refers to the drop in the measured response relative to a control, in per cent. Turning to `Cc1nc(NCc2ccc(C(C)(C)C)cc2)c(C)c(C)c1O`, in assay [1], the inhibition at 1 µM came out at 49.2%. Consider `Cc1nc(Nc2cccc(Cl)c2)c(C)c(C)c1O`, for which the inhibition at 1 µM in assay [1] turned out to be 42.5%.

Regarding `Cc1nc(Nc2cccc(F)c2)c(C)c(C)c1O`, the inhibition at 1 µM in assay [1] was found to be 16.3%. What is called inhibition in vivo is the relative decrease from the control value, in per cent. Consider `O=C(O)c1cc(/N=N/c2ccc(S(=O)(=O)Nc3ccccn3)cc2)ccc1O` [SULFASALAZINE], for which the Activity in the assay with Rattus norvegicus [2] was found to be 55.6%; in the assay on Rattus norvegicus [4], 67.1%. In the assay with Rattus norvegicus [3], the inhibition in vivo at 300 mg/kg/day worked out at 58.6%.

Regarding `Nc1cccc2c1CN(C1CCC(=O)NC1=O)C2=O` (stereo not given) [LENALIDOMIDE], in assay [1], the inhibition at 1 µM worked out at 64.6%.

For the molecule `Cc1nc(Nc2ccc([N+](=O)[O-])cc2)c(C)c(C)c1O`, the inhibition at 1 µM in assay [1] amounted to 39%. With `Cc1cccc(Nc2nc(C)c(O)c(C)c2C)c1`, in [1], the inhibition at 1 µM came out at 74%. On to `Cc1nc(Nc2ccc(F)cc2)c(C)c(C)c1O`, for which the inhibition at 1 µM in [1] turned out to be 71.5%.

For `Cc1nc(Nc2ccc(Oc3ccccc3)cc2)c(C)c(C)c1O`, in [1], the inhibition at 1 µM amounted to 17.3%. On the same count and under the same terms, next, `Cc1nc(N2CCCC2)c(C)c(C)c1O`: 36.7%; `Cc1nc(Nc2ccc(Cl)cc2)c(C)c(C)c1O`: 28.4%.

For the molecule `Cc1nc(N(C)c2ccccc2)c(C)c(C)c1O`, in assay [1], the inhibition at 1 µM amounted to 58.1%. What is called IC50 is the concentration needed to halve the response being measured. Regarding `Nc1ccc(O)c(C(=O)O)c1` [MESALAMINE], in assay [5], the IC50 turned out to be 18.1 mM. The inhibition at 20000 µM in assay [6] came out at 52.7%. In addition, the inhibition at 1 µM in [1] was 3.8%. Consider `Cc1nc(NCc2ccc(-c3ccccc3)cc2)c(C)c(C)c1O`, for which the inhibition at 1 µM in assay [1] came out at 1.3%. As for `Cc1nc(Nc2cccc(Br)c2)c(C)c(C)c1O`, the inhibition at 1 µM in assay [1] was 20.5%. Regarding `CCCc1ccc(Nc2nc(C)c(O)c(C)c2C)cc1`, the inhibition in vivo at 1 mg/kg/day with Rattus norvegicus [7] was 79.9%. The Activity in the assay on Rattus norvegicus [8] is 47.2%; in the assay with Rattus norvegicus [10], 69.9%; with Rattus norvegicus [11] it was 88.6%; in the assay on Rattus norvegicus [12], “Dose-dependent effect”; in the assay with Rattus norvegicus [13] it was 58.3%; in the assay with Rattus norvegicus [14], 72.6%. Moreover, the Activity is 56.6% in the assay on Rattus norvegicus [15], “Dose-dependent effect” with Rattus norvegicus [18] and “Dose-dependent effect” in the assay on Rattus norvegicus [19]. Further, the inhibition in vivo at 0.1 mg/kg/day in the assay with Rattus norvegicus [9] is 55.4%. The IC50 in assay [5] amounted to 0.00019 mM. For the same molecule, the Ratio in the assay listed under Rattus norvegicus [16], in the assay listed under Rattus norvegicus [17] and in the assay filed under Rattus norvegicus [21] was greater than 300 in each case. Further, the inhibition in vivo at 10 mg/kg/day with Rattus norvegicus [20] turned out to be 96.3%. Besides, the inhibition at 1 µM in [1] stood at 77.9%. Regarding `Cc1nc(Nc2cccc3ccccc23)c(C)c(C)c1O`, the inhibition at 1 µM in [1] stood at 52.4%. `Cc1nc(N(C)c2ccc(F)cc2)c(C)c(C)c1O`: the inhibition at 1 µM in assay [1] was determined as 77.2%.

With `Cc1nc(NC2CCCC2)c(C)c(C)c1O`, in assay [1], the inhibition at 1 µM turned out to be 73.3%. Regarding `CCCCCCCCCCCCCCCCNc1nc(C)c(O)c(C)c1C`, the inhibition at 1 µM in assay [1] was 26.9%. Same read-out and setting: next, `Cc1nc(Nc2ccc(Br)cc2)c(C)c(C)c1O`: 47.2%; `Cc1nc(Nc2ccccc2)c(C)c(C)c1O`: 73.6%; `Cc1ccc(N(C)c2nc(C)c(O)c(C)c2C)cc1`: 67.4%.

Turning to `Cc1nc(Nc2ccc(C(C)(C)C)cc2)c(C)c(C)c1O`, the inhibition at 1 µM in assay [1] was 27.3%. Still for that read-out and setting: next, `Cc1nc(N(c2ccccc2)c2ccccc2)c(C)c(C)c1O`: 41.3%; `Cc1nc(N(C)c2ccc(Cl)cc2)c(C)c(C)c1O`: 65.2%. The same measure, in the same setting: the figure for `Cc1nc(N2CCCCC2)c(C)c(C)c1O` is 47.9%; for `Cc1nc(-n2cccc2)c(C)c(C)c1O` it is 56.1%.

Consider `Cc1nc(N2CCOCC2)c(C)c(C)c1O`, for which, in assay [1], the inhibition at 1 µM turned out to be 67.7%. On to `Cc1nc(N2CCC(C(O)(c3ccccc3)c3ccccc3)CC2)c(C)c(C)c1O`, for which, in assay [1], the inhibition at 1 µM was -7%.

Consider `Cc1nc(Nc2ccccc2C(C)C)c(C)c(C)c1O`, for which the inhibition at 1 µM in assay [1] turned out to be 37.8%. Take `Cc1nc(Nc2ccc3c(c2)OCO3)c(C)c(C)c1O`: the inhibition at 1 µM in [1] was 26.5%.

With `Cc1nc(Nc2cccc(OC(C)C)c2)c(C)c(C)c1O`, the inhibition at 1 µM in [1] came to 24.9%. On the same count and under the same terms, the figure for `Cc1nc(Nc2cccc([N+](=O)[O-])c2)c(C)c(C)c1O` is 18.5%. For `COc1ccc(Nc2nc(C)c(O)c(C)c2C)cc1`, the inhibition at 1 µM in assay [1] turned out to be 14%. Regarding `Cc1nc(NC2CCCCC2)c(C)c(C)c1O`, the inhibition at 1 µM in assay [1] came to 36%. Take `Cc1nc(N2CCN(C)CC2)c(C)c(C)c1O`: the inhibition at 1 µM in assay [1] is 47.6%. Still for that read-out and setting: the figure for `Cc1nc(N(c2ccccc2)c2ccc3ccccc3c2)c(C)c(C)c1O` is 13.4%. Same read-out and setting: the figure for `Cc1nc(N)c(C)c(C)c1O` is 22.9%. With `Cc1nc(NCCCO)c(C)c(C)c1O`, the inhibition at 1 µM in assay [1] turned out to be 19%. Still for that read-out and setting: the figure for `CCCCCCNc1nc(C)c(O)c(C)c1C` is 28.4%; for `Cc1ccc(Nc2nc(C)c(O)c(C)c2C)cc1` it is 84.4%.

In the case of `Cc1nc(NCc2ccccc2)c(C)c(C)c1O`, in assay [1], the inhibition at 1 µM was found to be 35.7%. On to `Cc1cccc(N(C)c2nc(C)c(O)c(C)c2C)c1`, for which the inhibition at 1 µM in assay [1] came out at 63.2%. With `CCCCCCCCCCc1ccc(Nc2nc(C)c(O)c(C)c2C)cc1`, the inhibition at 1 µM in assay [1] was 76.6%.
